Test systems include TK-10 renal; SW-620 colon; HS 578T breast; RXF 393 renal; K-562 leukemia; SF-295 CNS; RPMI-8226 leukemia; U251 CNS; HOP-62 NSCLC; SNB-75 CNS.
What all share (experiment): DTP human tumour cell line panel, 48 h

The structures appear in SMILES notation. Several values for one entry are separate records, joined by “and”; a condition that tells them apart may be missing. Identical values can stand only once.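 Test compounds were applied to cells in 96-well plates for 48 hours at 5 doses. GI50 is the concentration that inhibits growth by half. TGI marks complete inhibition of growth.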 A value given as a limit tells only on which side of the number the result lay.

Data on 7 molecules can be found in PubChem BioAssay (NCI).

Usually GI50 stands for the concentration that inhibits growth by half. Usually TGI stands for the concentration giving total growth inhibition. High values mean less potent growth arrest, low ones more potent growth arrest.

With `COc1cc(F)c(/C=C/c2cc(/C=C/c3cc(OC)c(OC)cc3F)n(-c3cc(F)cc(F)c3)n2)cc1OC`, the GI50 was 3.63 µM with TK-10 renal; 2.44 µM in the assay on SW-620 colon; 4.04 µM with HS 578T breast; 5.07 µM with RXF 393 renal; 3.08 µM in the assay on K-562 leukemia; 2.97 µM in the assay with SF-295 CNS. The GI50 is 3.75 µM with RPMI-8226 leukemia, 1.69 µM in the assay on U251 CNS, 4.01 µM in the assay with HOP-62 NSCLC and 2.42 µM in the assay on SNB-75 CNS. Besides, the total growth inhibition concentration (TGI) in the assay with TK-10 renal was 28.3 µM; with SW-620 colon, 5.86 µM; in the assay with HS 578T breast, 18.9 µM; with RXF 393 renal, 18.4 µM; with K-562 leukemia, > 100 µM; in the assay with SF-295 CNS, 11.4 µM. The total growth inhibition concentration (TGI) worked out at 41.4 µM in the assay with RPMI-8226 leukemia, 3.15 µM in the assay on U251 CNS, 17.1 µM with HOP-62 NSCLC and 14.4 µM in the assay on SNB-75 CNS.

Turning to `NCCCN1CCN(CCCNc2nc3ccccc3c3[nH]c4ccccc4c23)CC1`, the GI50 is 0.81 µM with TK-10 renal; 0.326 µM in the assay on SW-620 colon; 0.521 µM in the assay on HS 578T breast; 0.429 µM with RXF 393 renal; 0.0715 µM in the assay on K-562 leukemia; 0.474 µM in the assay with SF-295 CNS. Further, the 50% growth inhibitory concentration (GI50) with RPMI-8226 leukemia is 0.241 µM; in the assay on U251 CNS, 0.373 µM; in the assay on HOP-62 NSCLC it was 0.26 µM; with SNB-75 CNS it was 0.691 µM. The concentration for total growth inhibition (TGI) worked out at 11.1 µM in the assay with TK-10 renal; 7.66 µM with SW-620 colon; 2.89 µM with HS 578T breast; 1.31 µM in the assay on RXF 393 renal; 43.1 µM in the assay on K-562 leukemia; 1.83 µM in the assay on SF-295 CNS. For the same molecule, the concentration for total growth inhibition (TGI) stood at 0.817 µM with RPMI-8226 leukemia, 4.54 µM in the assay with U251 CNS, 1.08 µM with HOP-62 NSCLC and 1.99 µM in the assay on SNB-75 CNS.

Take `CC(=O)OC(C)c1cc2c(s1)C(=O)c1c(C(C)OC(C)=O)csc1C2=O` (stereo not given): the TGI in the assay with TK-10 renal was 5.69 µM; in the assay with SW-620 colon, 2.37 µM; in the assay on HS 578T breast, 7.59 µM; with RXF 393 renal, 4.39 µM; in the assay on K-562 leukemia, 3.26 µM; in the assay on SF-295 CNS it was 2.59 µM. The concentration for total growth inhibition (TGI) in the assay on RPMI-8226 leukemia was found to be 4.98 µM; with U251 CNS it was 2.7 µM; in the assay with HOP-62 NSCLC it was 2.5 µM; in the assay with SNB-75 CNS, 4.43 µM. The GI50 in the assay on HS 578T breast is 2.08 µM.

As to `Cc1nc2c(N3CCCC3)nc(N3CCNCC3)nc2nc1NCc1ccccc1`, the concentration for total growth inhibition (TGI) was 11.8 µM and 17.6 µM with TK-10 renal; 12.5 µM and 7.27 µM in the assay on SW-620 colon; 17 µM and 18.7 µM in the assay on HS 578T breast; 11 µM and 2.66 µM with RXF 393 renal; 23.8 µM with K-562 leukemia; 11.3 µM and 5.02 µM in the assay on SF-295 CNS. The TGI in the assay with RPMI-8226 leukemia was 10.2 µM and 4.84 µM; in the assay with U251 CNS, 11.7 µM and 13 µM; in the assay with HOP-62 NSCLC it was 11.8 µM and 8.26 µM; in the assay on SNB-75 CNS, 4.11 µM and 4.69 µM. Further, the GI50 is 5.9 µM with SW-620 colon; 7.4 µM in the assay on HS 578T breast; 4.81 µM in the assay with RXF 393 renal; 1.06 µM with K-562 leukemia; 5.81 µM in the assay with SF-295 CNS; 4.08 µM in the assay with RPMI-8226 leukemia. For the same molecule, the GI50 with U251 CNS was 4.27 µM; in the assay on HOP-62 NSCLC, 5.76 µM; in the assay on SNB-75 CNS, 1.85 µM.

`Clc1cc(-c2ccccc2)nc2ccccc12`: the total growth inhibition concentration (TGI) is 71.6 µM in the assay with TK-10 renal; > 100 µM with SW-620 colon; > 100 µM in the assay on HS 578T breast; > 100 µM with RXF 393 renal; > 100 µM in the assay with K-562 leukemia; > 100 µM with SF-295 CNS. Further, the concentration for total growth inhibition (TGI) was 59 µM in the assay on RPMI-8226 leukemia, > 100 µM in the assay on U251 CNS, > 100 µM in the assay on HOP-62 NSCLC and 83.5 µM in the assay on SNB-75 CNS.

In the case of `COc1ccc(-c2cc(-c3cccc(NS(C)(=O)=O)c3)nc(N)c2C#N)cc1`, the GI50 in the assay on TK-10 renal is 0.278 µM; in the assay with SW-620 colon it was 0.048 µM; in the assay on HS 578T breast, 0.0468 µM; in the assay on RXF 393 renal, 0.0506 µM; in the assay on K-562 leukemia, 0.0541 µM; with SF-295 CNS it was 0.0497 µM. In addition, the 50% growth inhibitory concentration (GI50) was 0.286 µM with RPMI-8226 leukemia, 0.0577 µM with U251 CNS, 0.0689 µM in the assay with HOP-62 NSCLC and 0.0316 µM in the assay with SNB-75 CNS. The concentration for total growth inhibition (TGI) in the assay on TK-10 renal was > 47.5 µM; in the assay on SW-620 colon it was > 100 µM; in the assay on HS 578T breast, 2.39 µM; with RXF 393 renal, 0.44 µM; with K-562 leukemia, > 100 µM; in the assay with SF-295 CNS it was 2.87 µM. Also, the concentration for total growth inhibition (TGI) in the assay on RPMI-8226 leukemia is 8.23 µM; in the assay on U251 CNS, 19.3 µM; in the assay with HOP-62 NSCLC it was 34.6 µM; with SNB-75 CNS, 0.769 µM.

On to `CCOc1nccc2c1nc(-c1nonc1N)n2CC`, for which the GI50 with TK-10 renal, with SW-620 colon, in the assay with HS 578T breast, in the assay on RXF 393 renal, with K-562 leukemia and with SF-295 CNS was > 25 µM in each case. Besides, the GI50 in the assay on RPMI-8226 leukemia is > 25 µM; in the assay on U251 CNS it was > 25 µM; in the assay on HOP-62 NSCLC, > 25 µM; in the assay on SNB-75 CNS it was 16.2 µM. Further, the TGI with TK-10 renal, in the assay on SW-620 colon, in the assay with HS 578T breast, in the assay on RXF 393 renal, with K-562 leukemia and in the assay with SF-295 CNS was > 25 µM throughout. The TGI in the assay on RPMI-8226 leukemia, with U251 CNS, in the assay with HOP-62 NSCLC and in the assay with SNB-75 CNS was > 25 µM throughout.
